Key:
[1] = molecular target: T1, Peroxisome proliferator-activated receptor gamma (Homo sapiens) (UniProt P37231); experiment: Transactivation of PPARgamma (unknown origin) expressed in HEK293 cells at 10 uM after 24 to 48 hrs by luciferase reporter gene assay relative to control; format: cell-based
T1 sequence (whole entry): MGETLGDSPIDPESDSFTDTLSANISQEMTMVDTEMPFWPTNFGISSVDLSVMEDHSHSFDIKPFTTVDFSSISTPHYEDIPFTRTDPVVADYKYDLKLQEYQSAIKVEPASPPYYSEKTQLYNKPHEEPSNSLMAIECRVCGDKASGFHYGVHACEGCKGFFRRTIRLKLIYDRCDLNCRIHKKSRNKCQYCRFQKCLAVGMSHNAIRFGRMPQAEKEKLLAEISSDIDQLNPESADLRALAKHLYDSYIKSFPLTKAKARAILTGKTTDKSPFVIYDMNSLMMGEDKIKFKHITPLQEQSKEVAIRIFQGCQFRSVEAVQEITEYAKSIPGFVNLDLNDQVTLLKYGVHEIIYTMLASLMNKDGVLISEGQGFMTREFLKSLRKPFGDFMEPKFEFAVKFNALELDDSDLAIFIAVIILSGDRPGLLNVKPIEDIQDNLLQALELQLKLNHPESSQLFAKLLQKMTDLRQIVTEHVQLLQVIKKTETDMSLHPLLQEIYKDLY

[2] = molecular target: T2, Hexokinase-4 (Homo sapiens) (UniProt P35557); experiment: Activation of recombinant human glucokinase assessed as conversion of D-glucose to D-glucose-6-phosphate dehydrate at 10 uM by G6PDH/NADP coupled assay relative to control
T2 sequence (whole entry): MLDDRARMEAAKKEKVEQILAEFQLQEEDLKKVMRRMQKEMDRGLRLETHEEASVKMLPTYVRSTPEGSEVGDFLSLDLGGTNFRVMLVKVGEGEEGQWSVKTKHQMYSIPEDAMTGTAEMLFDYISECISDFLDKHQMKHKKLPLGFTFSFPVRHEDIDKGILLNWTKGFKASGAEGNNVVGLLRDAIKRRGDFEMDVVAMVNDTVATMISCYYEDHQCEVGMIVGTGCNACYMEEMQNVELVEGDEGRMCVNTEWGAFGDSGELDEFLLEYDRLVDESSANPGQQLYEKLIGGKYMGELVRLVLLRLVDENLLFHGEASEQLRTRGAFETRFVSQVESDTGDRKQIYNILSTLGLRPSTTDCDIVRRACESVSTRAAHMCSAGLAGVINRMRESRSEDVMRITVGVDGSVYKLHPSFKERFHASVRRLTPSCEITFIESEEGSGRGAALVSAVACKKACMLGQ

[3] = molecular target: T1, Peroxisome proliferator-activated receptor gamma (Homo sapiens); experiment: Agonist activity at PPARgamma (unknown origin) at 10 uM by luciferase reporter gene assay relative to control
[4] = molecular target: T2, Hexokinase-4 (Homo sapiens); experiment: Activation of glucokinase (unknown origin) at 10 uM relative to control

Row | Efficacy [1] | fold change (FC) [2] | Efficacy [3] | fold change (FC) [4] | Structure (SMILES)
1 | 52.7% | 1.7 | – | – | CCCOc1ccc(OCc2cccc(F)c2)cc1C(=O)Nc1ccc(C(=O)O)cn1
2 | – | – | 47.1% | 2.9 | O=C(Cc1ccc(/C=C2\SC(=O)NC2=O)cc1[N+](=O)[O-])Nc1ccccn1
3 | – | – | 48% | 2.9 | CC(C)OC(=O)c1ccc(NC(=O)Cc2ccc(/C=C3\SC(=O)NC3=O)cc2[N+](=O)[O-])nc1
4 | – | – | 47.4% | 2.7 | CCOC(=O)c1ccc(NC(=O)Cc2ccc(/C=C3\SC(=O)NC3=O)cc2[N+](=O)[O-])nc1
